According to PubChem BioAssay AID652241 (Broad Institute, 2013):
Results filed as inconclusive are left out. Active and inactive are the calls of the source.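 How the source made its calls: active means fitted curve reaches activity 50 in the expected rising direction at or below the top valid tested dose; inconclusive means no clear call, values can overlap the other calls; inactive means activity in the wrong direction, and the rest.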

The compounds below were run against Virion infectivity factor (Human immunodeficiency virus type 1 group M subtype B (isolate BH10)) + Virion infectivity factor (Human immunodeficiency virus type 1 group M subtype B (isolate BRU/LAI)) + Virion infectivity factor (Human immunodeficiency virus type 1 group M subtype B (isolate PCV12)) + Virion infectivity factor (Human immunodeficiency virus type 1 group M subtype B (isolate HXB2)) (UniProt P69720+P69721+P69722+P69723) (assay: Vif multimerization inhibitor potency, dose response, imaging, HEK293T, cherry-picks (AID 652241;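 further: imaged cell signal that rises when Vif self-association is disrupted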)). Settings: 24 h.
Chain of Virion infectivity factor (Human immunodeficiency virus type 1 group M subtype B (isolate BH10)) + Virion infectivity factor (Human immunodeficiency virus type 1 group M subtype B (isolate BRU/LAI)) + Virion infectivity factor (Human immunodeficiency virus type 1 group M subtype B (isolate PCV12)) + Virion infectivity factor (Human immunodeficiency virus type 1 group M subtype B (isolate HXB2)) (P69720 whole entry, looked up): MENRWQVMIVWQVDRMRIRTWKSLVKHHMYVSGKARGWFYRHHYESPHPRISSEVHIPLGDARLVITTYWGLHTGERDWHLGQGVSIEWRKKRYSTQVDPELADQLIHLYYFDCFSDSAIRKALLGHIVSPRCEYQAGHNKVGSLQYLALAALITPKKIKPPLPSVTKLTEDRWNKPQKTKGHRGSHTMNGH
Chain of Virion infectivity factor (Human immunodeficiency virus type 1 group M subtype B (isolate BH10)) + Virion infectivity factor (Human immunodeficiency virus type 1 group M subtype B (isolate BRU/LAI)) + Virion infectivity factor (Human immunodeficiency virus type 1 group M subtype B (isolate PCV12)) + Virion infectivity factor (Human immunodeficiency virus type 1 group M subtype B (isolate HXB2)) (P69721 whole entry, looked up): as the sequence (P69720 whole entry, looked up) above
Chain of Virion infectivity factor (Human immunodeficiency virus type 1 group M subtype B (isolate BH10)) + Virion infectivity factor (Human immunodeficiency virus type 1 group M subtype B (isolate BRU/LAI)) + Virion infectivity factor (Human immunodeficiency virus type 1 group M subtype B (isolate PCV12)) + Virion infectivity factor (Human immunodeficiency virus type 1 group M subtype B (isolate HXB2)) (P69722 whole entry, looked up): as the sequence (P69720 whole entry, looked up) above
Chain of Virion infectivity factor (Human immunodeficiency virus type 1 group M subtype B (isolate BH10)) + Virion infectivity factor (Human immunodeficiency virus type 1 group M subtype B (isolate BRU/LAI)) + Virion infectivity factor (Human immunodeficiency virus type 1 group M subtype B (isolate PCV12)) + Virion infectivity factor (Human immunodeficiency virus type 1 group M subtype B (isolate HXB2)) (P69723 whole entry, looked up): as the sequence (P69720 whole entry, looked up) above

Row | Compound | AC50
1 | CCOc1ccccc1NC(=O)Cn1nnc(C(=O)NCc2cccs2)c1N | 5.28 µM
2 | Cc1ccc(CCC(=O)Nc2ncc(Cc3cc(Cl)ccc3Cl)s2)o1 | 2.02 µM
3 | CC(C)OC(=O)c1ccc(NCc2cc(O)ccc2O)cc1Cl | 5 µM
4 | COc1ccc(-n2nc(C(=O)NCC(=O)Nc3cccc(Cl)c3)c3ccccc3c2=O)cc1OC | 8.05 µM
5 | CCOc1c(C(N)=O)c(-c2ccccc2)c2c(=O)[nH]c3ccccc3n12 | > 19.5 µM (inactive)
6 | COc1cc(-c2cnc3c(NC=O)cc(-c4ccccc4Cl)cn23)cc(OC)c1OC | 3.03 µM
7 | Cc1ccc(CNC(=O)c2cccc3c2C(=O)c2ccc(N4CCC(C)CC4)cc2S3(=O)=O)cc1 | 14.4 µM
8 | O=C(CCCCCn1c(=S)[nH]c2ccc(N3CCOCC3)cc2c1=O)NCc1ccccc1Cl | 6.23 µM
9 | Cc1nnc2ccc(-c3cccc(NS(=O)(=O)c4cc(F)ccc4F)c3)nn12 | 10.7 µM
10 | Cc1cc(NC(=O)NC2(C(F)(F)F)Oc3ccc(Cl)cc3O2)no1 (stereo not given) | 7.12 µM
11 | COc1ccc(NC(=O)Cn2ncc(Cl)c(Cl)c2=O)cc1S(=O)(=O)N1CCOCC1 | > 19.5 µM (inactive)
12 | CCOC(=O)N1CCN(c2c(NCc3ccc(Cl)cc3)c(=O)c2=O)CC1 | > 19.5 µM (inactive)
13 | O=C(NCc1ccccc1C(F)(F)F)c1cccc2c1C(=O)c1ccc(N3CCCCC3)cc1S2(=O)=O | 14.1 µM
14 | CCOc1ccc(Nc2nc3c(C)cccc3cc2C#N)cc1 | 11.9 µM
15 | COc1ccc2cc(-c3cc(C(=O)OCC(=O)NC4CCS(=O)(=O)C4)c4ccccc4n3)ccc2c1 (stereo not given) | 14.7 µM
16 | Cc1nnc2ccc(-c3cccc(NS(=O)(=O)c4ccccc4Cl)c3)nn12 | 14.1 µM
17 | COc1cccc(-c2cc(=O)c3cc(NC(=O)c4ccccc4)ccc3[nH]2)c1 | 5.04 µM
18 | COc1ccc(-c2cc(C(=O)Nc3cnn(Cc4ccccc4C)c3)no2)cc1OC | 16.3 µM
19 | Cc1nn(Cc2c(Cl)cccc2Cl)c(C)c1NC(=O)c1cnn2c(C(F)F)cc(-c3ccccc3)nc12 | 16.5 µM
20 | Clc1ccc(-n2nnnc2Sc2ncnc3sccc23)cc1 | > 6.8 µM (inactive)
21 | Cc1cccc(Nc2nc(-c3ccc(O)c(O)c3)cs2)n1 | > 19.5 µM (inactive)
22 | CCCc1cc(=O)oc2cc(OCc3cc(OC)c(OC)c(OC)c3)c(Cl)cc12 | 19.1 µM
23 | O=C(/C=C/c1ccccc1)Nc1ncn[nH]1 | 19.5 µM

Same assay, conditions: 24 h, at 2.1 µM (top of the series)

Row | Compound | activity, higher = inhibition
24 | COc1ccc(/C=C2\CN(Cc3ccccc3)C/C(=C\c3ccc(OC)c(O)c3)C2=O)cc1O | inactive

Same assay, conditions: 24 h, at 6.8 µM (top of the series)

Row | Compound | activity, higher = inhibition
25 | COc1ccc(OC)c(NC(=O)c2cc3ccccc3cc2OC)c1 | inactive
26 | COc1ccc(-c2nc(CS(=O)(=O)CC(=O)NCCc3ccccc3)c(C)o2)cc1 | inactive

Same assay, conditions: 24 h, at 19.5 µM (top of the series)

Row | Compound | activity, higher = inhibition
27 | COc1ccc(CN(CC(=O)NC2CCCC2)C(=O)CN2C(=O)COc3ccccc32)cc1 | inactive
28 | Cc1cccc(N2CCN(C(=O)c3cc4ccccc4oc3=O)CC2)c1C | inactive
29 | COc1ccc(-c2coc3c(C(=O)Nc4cccc(C(C)=O)c4)cccc23)c(C)c1 | inactive
30 | CC(C(=O)O)c1ccc(N2Cc3ccccc3C2=O)cc1 (stereo not given) | inactive
31 | CCCOCCOC(=O)c1[nH]c2c(c1C)C(=O)CC(c1cc(OC)ccc1OC)C2 (stereo not given) | inactive
32 | CCC(C)C(=O)Nn1c(C2CC2)nc2cc(OC)c(OC)cc2c1=O (stereo not given) | inactive
33 | CC(=O)Nc1ccc(C2(c3ccc(NC(C)=O)cc3)NC(=O)c3ccccc32)cc1 | inactive
34 | Cc1c(NC(=O)c2cc3ccccc3oc2=O)c(=O)n(-c2ccccc2)n1C | inactive
35 | O=C(O)CCCCn1c(SCc2ccccc2Cl)nc2ccsc2c1=O | inactive
36 | O=C(NCC1CC1)NC(=O)c1c(F)cccc1Cl | inactive
37 | CCOC(=O)c1c(C)[nH]c(-c2csc(N)n2)c1C | inactive
38 | CCc1cc2c(Sc3nc4ccccc4s3)ncnc2s1 | inactive
39 | COc1cccc(N2CCN(S(=O)(=O)c3cc4c(cc3C)N(C)CCO4)CC2)c1 | inactive
40 | CCOC(=O)C1CCN(S(=O)(=O)c2cccc(-c3cn4cc(C)ccc4n3)c2)CC1 | inactive
41 | COc1ccccc1Oc1coc2cc(OCC(N)=O)ccc2c1=O | inactive
42 | CCC(C)n1c(-c2cccs2)nc2nc3ccccc3nc21 (stereo not given) | inactive
43 | Cc1nc(SCC(=O)N2CCCC2=O)nc(C)c1C | inactive
44 | CCC(=O)Nc1ccc(-c2cc3ccccc3oc2=O)cc1 | inactive
45 | Cc1nnc(NC(=O)CSc2nnc(NC(=O)C(C)(C)C)s2)s1 | inactive
46 | O=C(Cn1ncc2c3ccccc3n(Cc3cccc(Cl)c3)c2c1=O)N1CCC2(CC1)OCCO2 | inactive
47 | COc1cc(C(=O)NCCc2cn3ccc(C)cc3n2)cc(OC)c1OC | inactive
48 | CCOC(=O)c1c(NC(=O)CCC(=O)N2CCOCC2)sc2c1CC(C)(C)OC2 | inactive

Row | Compound | activity, higher = inhibition
49 | CC(C)OCCCNc1ncnc2c1[nH]c1ccc(F)cc12 | inactive
50 | COc1ccc(CNC(=O)CN2C(=O)NC(c3ccccc3)(c3ccccc3)C2=O)cc1 | inactive
51 | CCN1CCc2c(sc(N)c2C(N)=O)C1 | inactive
52 | Cc1ccc(-c2cc(C(=O)NCc3ccccn3)c3ccccc3n2)cc1C | inactive
53 | O=C(C1COc2ccccc2O1)N1CCN(Cc2ccc3c(c2)OCO3)CC1 (stereo not given) | inactive
54 | COc1ccc(CNC(=O)COC(=O)c2cc(S(=O)(=O)N3CCOCC3)ccc2O)cc1OC | inactive
55 | COc1ccc(CN2C3CCC2CC(NC(=O)c2cc(OC)c(OC)c(OC)c2)C3)cc1 (stereo not given) | inactive
56 | CC1(C)CC(=O)C2=C(C1)Nc1ccccc1N(C(=O)C1CC1)C2c1ccco1 (stereo not given) | inactive
57 | CCCCCCOC(=O)C(C#N)c1nc2ccccc2nc1N1CCOCC1 (stereo not given) | inactive
58 | CC(C)CC(NC(=O)C1CCCCC1)C(=O)N1CCC2(CC1)OCCO2 (stereo not given) | inactive
59 | Cc1ccc(S(=O)(=O)c2nc(-c3ccccc3Cl)oc2N(C)C2CCN(C)CC2)cc1 | inactive
60 | CCOC(=O)Cc1csc(NC(=O)CSc2nnnn2-c2ccc(CC)cc2)n1 | inactive
61 | Cc1ccc(C(=O)COC(=O)c2cc(=O)[nH]c3ccccc23)cc1C | inactive
62 | CC(C)C(c1nnnn1CC1CCCO1)N1CCN(C2CCCC2)CC1 (stereo not given) | inactive
63 | NC(=O)c1sc2nc(-c3ccccc3)ccc2c1N | inactive
64 | O=C(NC1CCCc2ccccc21)c1ccccc1Br (stereo not given) | inactive
65 | Cc1ncoc1C(=O)N1CCCC(C(=O)c2ccc(Oc3ccccc3)cc2)C1 (stereo not given) | inactive
66 | O=C(c1cc(COc2cccc3cccnc23)on1)N1CCC[C@H]1CO | inactive
67 | CCn1c(SCc2ccc(C(=O)Nc3nccs3)cc2)nnc1-c1ccc(N)cc1 | inactive
68 | Cc1ccc(NC(=O)/C=C/C(=O)O)c(NC(=O)c2ccccc2)c1 | inactive
69 | COc1ccc(OC)c(NC(=O)c2nc(-c3ccccc3)oc2C)c1 | inactive
70 | CC(NC(=O)CSc1nc2c(c(C(F)(F)F)n1)CCc1ccccc1-2)c1ccccc1 (stereo not given) | inactive
